Converted amounts (≈) assume the structure as drawn.
What was measured:
Format in all cases: cell-based
C. albicans ATCC 24433 = assay: MIC80 broth double-dilution assay; conditions: YPAD medium, 30° C., 24 h
Procedure: (§1) The antifungal activities of the 24 azole-COX inhibitor hybrids were evaluated against a panel of 16 representative strains of different species of the genus Candida. Candida species cause both superficial and systemic infections. The panel included strains of C. albicans, C. glabrata, C. parapsilosis, C. tropicalis, C. guilliermondii, C. dubliniensis, and C. auris (Table S2). To evaluate antifungal activity, the minimal inhibitory concentration 80% (MIC80) values were determined, which were defined as the lowest drug concentrations with turbidity (measured at OD600) less than or equal to that of specific 1:5 dilutions of the growth control. As controls, FLC and VOR, were tested.
(§2) MIC80 values were determined using the broth microdilution method over a concentration range of 0.003-64 μg/mL. Orange circles represent C. albicans strains, yellow circles represent C. glabrata strains, and green circles represent C. parapsilosis, C. tropicalis, C. dubliniensis and C. auris. Cells were grown in YPAD medium at 30° C. (For C. auris strains 37° C.) 24 h. Each concentration was tested in triplicate, and results were confirmed in at least two independent experiments.
(§3) C. albicans, C. glabrata, C. parapsilosis, C. guilliermondii, C. tropicalis, and C. dubliniensis MICs were determined using CLSI M27-A3 guidelines with minor modifications. Starter cultures were streaked from glycerol stock onto YPAD agar plates and grown for 24 h at 30° C. Colonies were suspended in 1 mL PBS and diluted to 1×10^−3 OD600 and then diluted 1:100 into fresh medium. Hybrids dissolved in DMSO were added to YPAD broth (32 μL stock solution in 1218 μL of YPAD broth), and serial double dilutions of hybrids in YPAD were prepared in flat-bottomed 96-well microplates (Corning) to enable testing of concentrations ranging from 64 μg/mL to 0.003 μg/mL. Control wells with yeast cells but no drug and blank wells containing only YPAD were prepared. An equal volume (100 μL) of yeast suspensions in YPAD broth was added to each well with the exceptions of the blank wells. MIC values (Tables S4-S6) were determined after 24 h at 30° C. by measuring the OD600 using a plate reader (Infinite M200 PRO, Tecan). MIC values were defined as the point at which the OD600 was reduced by >80% compared to the no-drug wells. Each concentration was tested in triplicate, and results were confirmed by two independent sets of experiments. FLC and VOR were used as control drugs.

[1] = system: C. parapsilosis ATCC 22019; assay: MIC80 broth double-dilution assay; conditions: YPAD medium, 30° C., 24 h
Procedure: as §1, §2, §3

C. albicans SC5314 = assay: MIC80 broth double-dilution assay; conditions: YPAD medium, 30° C., 24 h
Procedure: as §1, §2, §3

C. dubliniensis T-99 = assay: MIC80 broth double-dilution assay; conditions: YPAD medium, 30° C., 24 h
Procedure: as §1, §2, §3

C. albicans ATCC 90028 = assay: MIC80 broth double-dilution assay; conditions: YPAD medium, 30° C., 24 h
Procedure: as §1, §2, §3

C. albicans P-87 = assay: MIC80 broth double-dilution assay; conditions: YPAD medium, 30° C., 24 h
Procedure: as §1, §2, §3

C. tropicalis 660 = assay: MIC80 broth double-dilution assay; conditions: YPAD medium, 30° C., 24 h
Procedure: as §1, §2, §3

C. albicans SN152 = assay: MIC80 broth double-dilution assay; conditions: YPAD medium, 30° C., 24 h; parent strain of the erg11ΔΔ/erg3ΔΔ mutant
Procedure: as §1, §2
(§4) The clinically used FLC and VOR act primarily by preventing ergosterol biosynthesis via inhibition of CYP51. Analysis was done to determine whether fungal growth inhibition by the hybrids required the presence of the ERG11 gene that encodes for CYP51. The antifungal activities of hybrids 1 and 5 and of FLC and VOR were determined against an erg11ΔΔ/erg3ΔΔ mutant C. albicans strain and against C. albicans SN152 from which this double knockout strain was derived (Table S2). […] Yeast growth was followed at OD600 over 48 h in 96-well plates containing serial double dilutions of the tested hybrids.
as §3

[2] = system: C. albicans 742 (erg11ΔΔ/erg3ΔΔ mutant C. albicans strain); assay: MIC80 broth double-dilution assay, strain lacking CYP51; conditions: YPAD medium, 30° C., 24 h; erg11ΔΔ/erg3ΔΔ mutant lacking CYP51
Procedure: as §1, §4, §3

C. guilliermondii T-47 = assay: MIC80 broth double-dilution assay; conditions: YPAD medium, 30° C., 24 h
Procedure: as §1, §3

SMILES | MIC80 against C. albicans 24433 (C. albicans ATCC 24433) [µg/mL] | MIC80 against C. parapsilosis 22019 [1] [µg/mL] | MIC80 against C. albicans SC5314 (C. albicans SC5314) [µg/mL] | MIC80 against C. dubliniensis T-99 (C. dubliniensis T-99) [µg/mL] | MIC80 against C. albicans 90028 (C. albicans ATCC 90028) [µg/mL] | MIC80 against C. albicans P-87 (C. albicans P-87) [µg/mL] | MIC80 against C. tropicalis 660 (C. tropicalis 660) [µg/mL] | MIC80 against C. albicans SN152 (C. albicans SN152) [µg/mL] | MIC80 against C. albicans 742 [2] [µg/mL] | MIC80 against C. guilliermondii T-47 (C. guilliermondii T-47) [µg/mL]
O=C(NC[C@@](O)(Cn1cncn1)c1ccc(F)cc1F)c1cccnc1Nc1cccc(C(F)(F)F)c1 [Hybrid 18] | 8 (≈ 15.4 µM) | 8 (≈ 15.4 µM) | 16 (≈ 30.9 µM) | 16 (≈ 30.9 µM) | 16 (≈ 30.9 µM) | 16 (≈ 30.9 µM) | >64 | 8 (≈ 15.4 µM) | 64 (≈ 123 µM) | >64
C[C@H](C(=O)NC[C@@](O)(Cn1cncn1)c1ccc(F)cc1F)c1cccc(C(=O)c2ccccc2)c1 [Hybrid 16] | >64 | >64 | >64 | 16 (≈ 32.6 µM) | >64 | >64 | >64 | >64 | >64 | >64
C[C@H](C(=O)NC[C@@](O)(Cn1cncn1)c1ccc(F)cc1F)c1ccc(-c2ccccc2)c(F)c1 [Hybrid 8] | >64 | 64 (≈ 133 µM) | 32 (≈ 66.6 µM) | 2 (≈ 4.16 µM) | 64 (≈ 133 µM) | 64 (≈ 133 µM) | >64 | 64 (≈ 133 µM) | >64 | 64 (≈ 133 µM)
CC(C)Cc1ccc([C@H](C)C(=O)NC[C@@](O)(Cn2cncn2)c2ccc(F)cc2F)cc1 [Hybrid 4] | 2 (≈ 4.52 µM) | 8 (≈ 18.1 µM) | 1 (≈ 2.26 µM) | 0.03 (≈ 0.0678 µM) | 1 (≈ 2.26 µM) | 0.5 (≈ 1.13 µM) | >64 | 1 (≈ 2.26 µM) | >64 | 16 (≈ 36.2 µM)
C[C@@H](C(=O)NC[C@](O)(Cn1cncn1)c1ccc(F)cc1F)c1cccc(C(=O)c2ccccc2)c1 [Hybrid 14] | 1 (≈ 2.04 µM) | 8 (≈ 16.3 µM) | 1 (≈ 2.04 µM) | 4 (≈ 8.15 µM) | 1 (≈ 2.04 µM) | 1 (≈ 2.04 µM) | 16 (≈ 32.6 µM) | 0.5 (≈ 1.02 µM) | >64 | 16 (≈ 32.6 µM)
C[C@@H](C(=O)NC[C@@](O)(Cn1cncn1)c1ccc(F)cc1F)c1cccc(C(=O)c2ccccc2)c1 [Hybrid 15] | >64 | >64 | >64 | 16 (≈ 32.6 µM) | >64 | >64 | >64 | >64 | >64 | >64

Reference: patent publication US20250018048A1, “FLUCONAZOLE-COX INHIBITOR HYBRIDS: A DUAL-ACTING CLASS OF ANTIFUNGAL AZOLES” (Ramot at Tel-Aviv University Ltd., priority 2022, published 2025)
